Results from ChEMBL document CHEMBL1201862, “PubChem BioAssay data set” (2004).
Blank lines part the entries; values can stand above or below the compound they belong to. Calls of active or inactive are those of the source.

Assays:
[1] = biological target: Tyrosyl-DNA phosphodiesterase 2 (Homo sapiens, UniProt O95551); experiment: potency against TDP2 phosphodiesterase activity – biochemical, epi absorbance, IC50, dose response (AID 743297)
Aminopeptidase N = biological target: T1, Aminopeptidase N (Plasmodium falciparum FcB1/Columbia, UniProt O96935); experiment: malaria alanyl aminopeptidase activity blockers – biochemical, fluorogenic H-Leu-NHMec substrate, 1536-well (AID 1445); parameters: species or system Plasmodium falciparum 3D7, 3D7
T1 sequence (O96935 whole entry): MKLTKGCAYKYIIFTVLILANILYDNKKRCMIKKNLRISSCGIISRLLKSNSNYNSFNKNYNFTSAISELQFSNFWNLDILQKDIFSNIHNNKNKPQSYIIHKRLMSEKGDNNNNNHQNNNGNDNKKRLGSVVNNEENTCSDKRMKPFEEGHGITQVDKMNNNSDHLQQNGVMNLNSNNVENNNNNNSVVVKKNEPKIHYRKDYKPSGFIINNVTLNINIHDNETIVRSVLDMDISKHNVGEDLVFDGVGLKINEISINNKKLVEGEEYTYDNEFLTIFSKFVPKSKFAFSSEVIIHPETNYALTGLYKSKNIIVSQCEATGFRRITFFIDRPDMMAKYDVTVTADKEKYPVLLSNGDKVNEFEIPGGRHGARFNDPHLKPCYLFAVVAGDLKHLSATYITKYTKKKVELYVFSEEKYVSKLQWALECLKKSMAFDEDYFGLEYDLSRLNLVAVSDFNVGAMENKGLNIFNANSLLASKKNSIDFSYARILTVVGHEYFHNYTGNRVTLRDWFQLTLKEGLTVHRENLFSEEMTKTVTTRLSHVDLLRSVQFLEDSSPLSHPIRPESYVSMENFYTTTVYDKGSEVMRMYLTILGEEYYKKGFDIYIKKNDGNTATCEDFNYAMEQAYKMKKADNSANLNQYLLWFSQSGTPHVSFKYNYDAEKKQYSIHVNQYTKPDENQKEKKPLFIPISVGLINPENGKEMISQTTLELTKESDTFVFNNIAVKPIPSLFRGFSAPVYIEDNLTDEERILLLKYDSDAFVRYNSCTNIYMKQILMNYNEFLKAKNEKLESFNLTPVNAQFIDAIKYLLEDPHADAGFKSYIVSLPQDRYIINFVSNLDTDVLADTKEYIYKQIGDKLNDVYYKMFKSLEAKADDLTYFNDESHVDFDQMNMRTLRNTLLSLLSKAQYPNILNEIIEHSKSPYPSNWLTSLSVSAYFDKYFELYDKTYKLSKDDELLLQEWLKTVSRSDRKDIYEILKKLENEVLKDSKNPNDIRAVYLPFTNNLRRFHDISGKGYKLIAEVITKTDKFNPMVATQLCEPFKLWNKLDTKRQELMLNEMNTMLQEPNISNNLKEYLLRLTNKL

[2] = biological target: Tyrosine-protein kinase ABL1 (Homo sapiens, UniProt P00519); type: functional
[3] = biological target: Serine/threonine-protein kinase MRCK alpha (Homo sapiens, UniProt Q5VT25); type: functional
Serine/threonine-protein kinase MRCK alpha, sequence (Q5VT25 whole entry): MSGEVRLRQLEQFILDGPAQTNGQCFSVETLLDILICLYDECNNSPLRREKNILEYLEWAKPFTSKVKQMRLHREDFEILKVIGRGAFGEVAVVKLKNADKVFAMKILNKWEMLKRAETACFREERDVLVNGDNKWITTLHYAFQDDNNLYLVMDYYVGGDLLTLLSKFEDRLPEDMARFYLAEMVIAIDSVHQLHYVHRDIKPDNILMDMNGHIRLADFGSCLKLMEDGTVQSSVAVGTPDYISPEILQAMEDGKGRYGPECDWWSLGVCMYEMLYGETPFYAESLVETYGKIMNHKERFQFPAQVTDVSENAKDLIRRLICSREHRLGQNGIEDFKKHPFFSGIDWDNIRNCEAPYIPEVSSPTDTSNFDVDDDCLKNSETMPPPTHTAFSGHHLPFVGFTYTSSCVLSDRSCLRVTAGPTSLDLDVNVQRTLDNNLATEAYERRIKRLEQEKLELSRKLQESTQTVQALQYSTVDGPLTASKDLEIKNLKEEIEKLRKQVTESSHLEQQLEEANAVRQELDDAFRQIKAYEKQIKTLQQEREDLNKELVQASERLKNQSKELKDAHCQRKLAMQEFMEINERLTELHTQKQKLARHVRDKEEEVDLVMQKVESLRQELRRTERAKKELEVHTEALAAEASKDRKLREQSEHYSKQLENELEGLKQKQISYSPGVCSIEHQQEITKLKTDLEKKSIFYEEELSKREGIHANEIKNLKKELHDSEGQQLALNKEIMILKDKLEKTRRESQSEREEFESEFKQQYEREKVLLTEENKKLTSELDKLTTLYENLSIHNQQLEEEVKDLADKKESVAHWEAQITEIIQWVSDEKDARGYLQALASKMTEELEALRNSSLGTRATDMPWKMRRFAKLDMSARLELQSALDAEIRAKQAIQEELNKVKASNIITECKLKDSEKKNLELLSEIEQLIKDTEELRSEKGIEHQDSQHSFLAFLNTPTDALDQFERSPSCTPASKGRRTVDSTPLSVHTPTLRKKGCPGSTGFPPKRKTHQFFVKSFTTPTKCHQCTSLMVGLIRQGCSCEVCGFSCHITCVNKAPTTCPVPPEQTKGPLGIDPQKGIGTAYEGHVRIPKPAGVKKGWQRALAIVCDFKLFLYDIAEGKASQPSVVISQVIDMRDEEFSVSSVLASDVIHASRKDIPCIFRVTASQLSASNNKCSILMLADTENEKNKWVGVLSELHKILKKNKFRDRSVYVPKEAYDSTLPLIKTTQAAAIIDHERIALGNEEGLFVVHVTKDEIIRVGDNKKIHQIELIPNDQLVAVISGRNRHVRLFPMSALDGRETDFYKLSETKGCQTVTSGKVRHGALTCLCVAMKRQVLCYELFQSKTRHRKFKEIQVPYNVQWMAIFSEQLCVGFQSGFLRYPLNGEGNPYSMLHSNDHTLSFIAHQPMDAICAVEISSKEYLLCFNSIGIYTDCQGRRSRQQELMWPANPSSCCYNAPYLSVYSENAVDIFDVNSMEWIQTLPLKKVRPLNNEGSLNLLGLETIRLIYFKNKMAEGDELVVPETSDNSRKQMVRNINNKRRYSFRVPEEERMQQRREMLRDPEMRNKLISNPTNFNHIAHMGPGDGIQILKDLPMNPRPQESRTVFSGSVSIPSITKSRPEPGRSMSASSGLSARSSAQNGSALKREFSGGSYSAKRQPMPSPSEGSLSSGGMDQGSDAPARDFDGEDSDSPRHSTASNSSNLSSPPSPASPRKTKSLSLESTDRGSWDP

[4] = biological target: Serine/threonine-protein kinase DCLK1 (Homo sapiens, UniProt O15075); type: functional;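 further: affinity for DCLK1 (listed as DCAMKL1) measured as one member of a kinome-wide kinase profiling panel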
Serine/threonine-protein kinase DCLK1, sequence (O15075 whole entry): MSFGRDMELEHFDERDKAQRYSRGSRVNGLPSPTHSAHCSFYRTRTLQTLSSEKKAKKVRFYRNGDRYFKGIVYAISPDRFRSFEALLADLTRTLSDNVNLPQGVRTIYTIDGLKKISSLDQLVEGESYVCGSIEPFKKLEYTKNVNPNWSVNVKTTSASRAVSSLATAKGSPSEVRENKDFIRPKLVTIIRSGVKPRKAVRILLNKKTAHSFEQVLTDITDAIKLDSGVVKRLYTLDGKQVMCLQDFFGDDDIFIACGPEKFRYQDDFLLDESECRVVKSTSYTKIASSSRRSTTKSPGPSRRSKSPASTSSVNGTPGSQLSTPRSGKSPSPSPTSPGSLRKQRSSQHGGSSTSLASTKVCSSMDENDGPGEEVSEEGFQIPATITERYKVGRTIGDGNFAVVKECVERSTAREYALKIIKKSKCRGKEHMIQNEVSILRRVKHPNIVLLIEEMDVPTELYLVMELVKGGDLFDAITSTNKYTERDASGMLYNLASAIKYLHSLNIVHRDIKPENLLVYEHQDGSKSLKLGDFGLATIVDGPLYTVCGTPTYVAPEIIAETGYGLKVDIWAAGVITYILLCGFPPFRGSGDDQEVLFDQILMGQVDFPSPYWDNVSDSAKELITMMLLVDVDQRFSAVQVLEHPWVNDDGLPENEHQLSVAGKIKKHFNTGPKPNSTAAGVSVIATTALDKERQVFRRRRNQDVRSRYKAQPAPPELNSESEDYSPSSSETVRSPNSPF

[5] = biological target: Vascular endothelial growth factor receptor 3 (Homo sapiens, UniProt P35916); type: functional;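 further: value from a kinome-wide profiling panel, with FLT4 as the panel member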
Vascular endothelial growth factor receptor 3, sequence (P35916 whole entry): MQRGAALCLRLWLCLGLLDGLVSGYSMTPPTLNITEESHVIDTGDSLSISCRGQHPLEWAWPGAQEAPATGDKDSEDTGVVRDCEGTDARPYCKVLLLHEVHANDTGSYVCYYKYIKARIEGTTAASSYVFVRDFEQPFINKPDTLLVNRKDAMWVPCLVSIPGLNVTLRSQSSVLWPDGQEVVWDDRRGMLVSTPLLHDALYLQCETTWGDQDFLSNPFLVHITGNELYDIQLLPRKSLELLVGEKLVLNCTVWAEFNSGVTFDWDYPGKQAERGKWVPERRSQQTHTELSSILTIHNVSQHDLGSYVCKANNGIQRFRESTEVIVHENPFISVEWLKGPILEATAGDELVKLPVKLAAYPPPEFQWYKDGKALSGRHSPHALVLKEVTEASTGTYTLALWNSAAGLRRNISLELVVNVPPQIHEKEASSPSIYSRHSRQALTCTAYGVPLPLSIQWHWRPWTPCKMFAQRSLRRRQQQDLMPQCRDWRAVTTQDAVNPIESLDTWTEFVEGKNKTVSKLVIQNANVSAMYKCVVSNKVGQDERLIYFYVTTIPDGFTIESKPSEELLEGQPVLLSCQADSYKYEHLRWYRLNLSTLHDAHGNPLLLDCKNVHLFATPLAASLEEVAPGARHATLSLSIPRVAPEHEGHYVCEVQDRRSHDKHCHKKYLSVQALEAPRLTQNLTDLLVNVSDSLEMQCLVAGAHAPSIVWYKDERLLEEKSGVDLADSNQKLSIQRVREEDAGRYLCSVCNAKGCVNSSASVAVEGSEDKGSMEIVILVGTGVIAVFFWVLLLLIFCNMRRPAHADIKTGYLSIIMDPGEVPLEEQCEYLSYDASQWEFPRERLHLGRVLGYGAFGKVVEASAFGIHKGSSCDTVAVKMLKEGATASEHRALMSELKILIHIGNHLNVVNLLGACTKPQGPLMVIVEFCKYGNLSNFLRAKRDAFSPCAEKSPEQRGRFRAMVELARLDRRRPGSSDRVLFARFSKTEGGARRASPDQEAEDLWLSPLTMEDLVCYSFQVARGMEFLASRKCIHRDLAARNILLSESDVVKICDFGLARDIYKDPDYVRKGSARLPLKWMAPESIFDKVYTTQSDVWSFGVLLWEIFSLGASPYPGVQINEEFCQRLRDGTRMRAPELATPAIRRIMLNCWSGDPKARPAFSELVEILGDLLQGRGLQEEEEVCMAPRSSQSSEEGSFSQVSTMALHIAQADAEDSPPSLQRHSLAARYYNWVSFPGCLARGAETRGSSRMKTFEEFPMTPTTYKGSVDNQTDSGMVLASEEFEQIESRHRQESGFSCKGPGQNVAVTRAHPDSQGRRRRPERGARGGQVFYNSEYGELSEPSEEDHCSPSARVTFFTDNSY

[6] = biological target: Homeodomain-interacting protein kinase 4 (Homo sapiens, UniProt Q8NE63); type: functional
[7] = biological target: Casein kinase I isoform gamma-1 (Homo sapiens, UniProt Q9HCP0); type: functional;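 further: measured as the CSNK1G1 member of a kinome profiling panel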
Casein kinase I isoform gamma-1, sequence (Q9HCP0 whole entry, canonical isoform): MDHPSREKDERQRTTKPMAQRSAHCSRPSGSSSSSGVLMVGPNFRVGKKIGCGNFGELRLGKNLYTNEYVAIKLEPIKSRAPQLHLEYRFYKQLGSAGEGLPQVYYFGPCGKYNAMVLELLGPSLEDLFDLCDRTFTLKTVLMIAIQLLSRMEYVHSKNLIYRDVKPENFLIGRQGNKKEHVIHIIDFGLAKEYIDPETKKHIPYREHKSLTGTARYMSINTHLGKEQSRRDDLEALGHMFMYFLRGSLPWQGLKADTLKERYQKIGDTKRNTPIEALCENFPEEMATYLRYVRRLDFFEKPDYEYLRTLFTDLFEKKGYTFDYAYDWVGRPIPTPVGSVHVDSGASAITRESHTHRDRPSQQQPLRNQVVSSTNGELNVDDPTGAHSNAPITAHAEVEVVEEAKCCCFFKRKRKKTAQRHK

[8] = biological target: MAP kinase-activated protein kinase 2 (Homo sapiens, UniProt P49137); type: functional;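 further: measured as one member of a kinome-wide kinase panel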
MAP kinase-activated protein kinase 2, sequence (P49137 whole entry): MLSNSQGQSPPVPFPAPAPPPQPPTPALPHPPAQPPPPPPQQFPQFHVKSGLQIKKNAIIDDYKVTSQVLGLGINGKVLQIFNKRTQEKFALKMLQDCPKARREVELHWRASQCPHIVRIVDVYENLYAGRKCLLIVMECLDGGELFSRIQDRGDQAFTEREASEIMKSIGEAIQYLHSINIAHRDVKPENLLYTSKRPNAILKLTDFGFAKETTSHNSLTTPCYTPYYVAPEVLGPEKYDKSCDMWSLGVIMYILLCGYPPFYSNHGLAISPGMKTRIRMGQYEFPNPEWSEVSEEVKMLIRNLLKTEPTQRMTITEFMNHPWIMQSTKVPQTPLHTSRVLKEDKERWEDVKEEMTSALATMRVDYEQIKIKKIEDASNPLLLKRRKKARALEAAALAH

Tyrosyl-DNA phosphodiesterase 2, sequence (O95551 whole entry): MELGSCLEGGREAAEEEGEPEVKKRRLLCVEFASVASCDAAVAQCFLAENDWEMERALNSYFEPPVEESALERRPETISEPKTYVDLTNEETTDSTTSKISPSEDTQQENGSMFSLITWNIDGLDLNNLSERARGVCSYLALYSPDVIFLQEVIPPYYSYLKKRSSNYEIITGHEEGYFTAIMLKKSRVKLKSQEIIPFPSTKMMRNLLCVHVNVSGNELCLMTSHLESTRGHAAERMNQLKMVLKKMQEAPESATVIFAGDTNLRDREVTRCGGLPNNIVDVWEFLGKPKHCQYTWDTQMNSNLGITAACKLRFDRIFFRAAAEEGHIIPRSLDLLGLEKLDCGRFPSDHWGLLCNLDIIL

SMILES: Cc1ccc(NC2=C(NCCO)C(=O)c3ccccc3C2=O)cc1
IC50 [1]: 65.1 µM (inactive)

SMILES: CC(/C=C1\SC(=S)N(NS(=O)(=O)c2ccc(C)cc2)C1=O)=C\c1ccccc1
IC50 (Aminopeptidase N): 64 µM (active)

Ki [2]: > 2.51 µM (inactive)
SMILES: COc1ccc(C2=NNc3cccc4c(OC)ccc2c34)cc1OC

SMILES: CN1CCC(c2c(O)cc(O)c3c(=O)cc(-c4ccccc4Cl)oc23)C(O)C1 (stereo not given)
Ki [3]: 0.631 µM (active)
pKi [3]: 6.2
Ki [4]: > 10 µM (inactive)
Ki [5]: > 6.31 µM (inactive)
Ki [6]: > 7.94 µM (inactive)
Ki [7]: > 6.31 µM (inactive)
Ki [8]: > 7.94 µM (inactive)
